Laboratory results from paper PMC4290489, “Identification of multiple salicylic acid-binding proteins using two high throughput screens” (Frontiers in Plant Science, 2015).

What was measured:
Type in all cases: binding
HPR2 = biological target: T1, HPR2 (Arabidopsis thaliana, UniProt Q9CA90); assay: SPR competition on 3AESA chip; competition of 4AzSA photo-crosslinking; conditions: 1-5 mM SA, HBS-EP pH 7.4 (SPR); competes with 3AESA and 4AzSA
T1 construct: N-terminal His6 (pET28a), from E. coli
T1 sequence (Q9CA90 1-313): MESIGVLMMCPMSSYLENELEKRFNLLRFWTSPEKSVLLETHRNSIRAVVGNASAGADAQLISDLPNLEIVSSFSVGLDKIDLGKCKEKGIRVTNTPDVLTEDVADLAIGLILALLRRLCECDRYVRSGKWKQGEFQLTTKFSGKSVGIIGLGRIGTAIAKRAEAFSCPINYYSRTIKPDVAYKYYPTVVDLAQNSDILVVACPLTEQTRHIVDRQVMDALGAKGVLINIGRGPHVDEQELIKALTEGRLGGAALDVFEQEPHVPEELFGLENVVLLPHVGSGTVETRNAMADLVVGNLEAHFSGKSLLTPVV

LOX2 [1] = biological target: T2, LOX2 (Arabidopsis thaliana, UniProt P38418); assay: as above; conditions: 1-5 mM SA, HBS-EP pH 7.4 (SPR); competes with 3AESA and 4AzSA
T2 construct: N-terminal His6 (pET28a), from E. coli
T2 sequence (P38418 57-896): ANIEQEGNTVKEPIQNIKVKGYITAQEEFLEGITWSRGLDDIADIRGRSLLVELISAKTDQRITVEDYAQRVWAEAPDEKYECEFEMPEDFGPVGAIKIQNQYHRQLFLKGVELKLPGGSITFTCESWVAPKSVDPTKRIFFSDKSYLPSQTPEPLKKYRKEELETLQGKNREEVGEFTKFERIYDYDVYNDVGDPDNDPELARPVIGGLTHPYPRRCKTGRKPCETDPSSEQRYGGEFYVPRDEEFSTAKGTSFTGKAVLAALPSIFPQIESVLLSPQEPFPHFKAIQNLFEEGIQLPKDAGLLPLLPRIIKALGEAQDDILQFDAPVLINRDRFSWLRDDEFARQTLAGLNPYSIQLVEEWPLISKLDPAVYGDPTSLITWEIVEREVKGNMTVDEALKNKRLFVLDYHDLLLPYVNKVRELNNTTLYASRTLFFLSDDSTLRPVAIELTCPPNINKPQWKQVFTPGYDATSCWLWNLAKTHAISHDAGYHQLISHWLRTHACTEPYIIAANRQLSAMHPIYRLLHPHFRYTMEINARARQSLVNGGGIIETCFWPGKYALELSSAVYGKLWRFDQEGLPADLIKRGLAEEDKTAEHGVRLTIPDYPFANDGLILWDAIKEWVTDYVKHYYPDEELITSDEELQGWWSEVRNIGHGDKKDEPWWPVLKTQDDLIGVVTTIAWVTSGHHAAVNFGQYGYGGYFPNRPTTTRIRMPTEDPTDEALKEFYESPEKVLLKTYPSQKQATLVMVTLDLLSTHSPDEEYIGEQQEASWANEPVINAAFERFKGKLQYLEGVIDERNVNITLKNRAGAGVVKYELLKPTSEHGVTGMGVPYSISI

GPX2 [2] = biological target: T3, GPX2 (Arabidopsis thaliana, UniProt O04922); assay: as above; conditions: 1-5 mM SA, HBS-EP pH 7.4 (SPR); competes with 3AESA and 4AzSA
T3 construct: N-terminal His6 (pET28a), from E. coli
T3 sequence (O04922 1-169): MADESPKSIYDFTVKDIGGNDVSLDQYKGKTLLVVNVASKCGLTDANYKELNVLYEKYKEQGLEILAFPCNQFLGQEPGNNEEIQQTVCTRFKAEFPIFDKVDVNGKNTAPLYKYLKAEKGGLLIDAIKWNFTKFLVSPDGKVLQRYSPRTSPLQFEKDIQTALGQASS

UGE2 [3] = biological target: T4, UGE2 (Arabidopsis thaliana, UniProt Q9T0A7); assay: as above; conditions: 1-5 mM SA, HBS-EP pH 7.4 (SPR); competes with 3AESA and 4AzSA
T4 construct: N-terminal His6 (pET28a), from E. coli
T4 sequence (Q9T0A7 1-350): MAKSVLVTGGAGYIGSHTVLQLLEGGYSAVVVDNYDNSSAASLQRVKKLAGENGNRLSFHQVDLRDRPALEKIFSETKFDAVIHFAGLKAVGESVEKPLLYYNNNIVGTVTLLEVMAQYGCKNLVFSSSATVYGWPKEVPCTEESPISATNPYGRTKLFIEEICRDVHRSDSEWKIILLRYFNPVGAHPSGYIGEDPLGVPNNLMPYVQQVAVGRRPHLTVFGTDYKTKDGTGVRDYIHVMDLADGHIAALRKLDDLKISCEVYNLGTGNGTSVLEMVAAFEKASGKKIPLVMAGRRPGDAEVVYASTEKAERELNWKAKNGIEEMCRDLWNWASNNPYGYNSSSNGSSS

TRX-m1 = biological target: T5, TRX-m1 (Arabidopsis thaliana, UniProt O48737); assay: UV photo-crosslinking, anti-SA immunoblot; conditions: 50 uM 4AzSA, PBS, on ice, 254 nm UV; covalent; competed by SA
T5 construct: gene At1g03680; N-terminal His6 (pET28a), from E. coli
T5 sequence (O48737 49-179): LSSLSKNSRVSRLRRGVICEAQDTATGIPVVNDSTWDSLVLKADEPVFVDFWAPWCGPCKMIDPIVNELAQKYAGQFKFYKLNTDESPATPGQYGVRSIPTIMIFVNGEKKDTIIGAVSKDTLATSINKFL

GSR2 = biological target: T6, GSR2 (Arabidopsis thaliana, UniProt Q8LCE1); assay: UV photo-crosslinking, anti-SA immunoblot; conditions: 50 uM 4AzSA, PBS, on ice, 254 nm UV; covalent; competed by SA
T6 construct: gene GLN1-2; N-terminal His6 (pET28a), from E. coli
T6 sequence (Q8LCE1 1-356): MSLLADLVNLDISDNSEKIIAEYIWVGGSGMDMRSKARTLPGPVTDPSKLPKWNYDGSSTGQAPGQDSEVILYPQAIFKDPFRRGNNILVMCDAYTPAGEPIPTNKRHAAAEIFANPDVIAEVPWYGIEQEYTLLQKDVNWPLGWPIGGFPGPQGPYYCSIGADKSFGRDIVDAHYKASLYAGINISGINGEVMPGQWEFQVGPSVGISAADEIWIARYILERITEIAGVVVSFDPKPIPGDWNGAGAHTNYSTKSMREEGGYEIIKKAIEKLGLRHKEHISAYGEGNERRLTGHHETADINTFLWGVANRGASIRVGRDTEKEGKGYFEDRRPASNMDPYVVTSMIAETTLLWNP

GPX2 [4] = biological target: T3, GPX2; assay: UV photo-crosslinking, anti-SA immunoblot; conditions: 50 uM 4AzSA, PBS, on ice, 254 nm UV; covalent; competed by SA
UGE2 [5] = biological target: T4, UGE2; assay: UV photo-crosslinking, anti-SA immunoblot; conditions: 50 uM 4AzSA, PBS, on ice, 254 nm UV; covalent; competed by SA
LOX2 [6] = biological target: T2, LOX2; assay: UV photo-crosslinking, anti-SA immunoblot; conditions: 50 uM 4AzSA, PBS, on ice, 254 nm UV; covalent; competed by SA

Row | SMILES | SPR competition on 3AESA chip; competition of 4AzSA photo-crosslinking (HPR2) | SPR competition on 3AESA chip; competition of 4AzSA photo-crosslinking (LOX2 [1]) | SPR competition on 3AESA chip; competition of 4AzSA photo-crosslinking (GPX2 [2]) | SPR competition on 3AESA chip; competition of 4AzSA photo-crosslinking (UGE2 [3]) | UV photo-crosslinking, anti-SA immunoblot (TRX-m1) | UV photo-crosslinking, anti-SA immunoblot (GSR2) | UV photo-crosslinking, anti-SA immunoblot (GPX2 [4]) | UV photo-crosslinking, anti-SA immunoblot (UGE2 [5]) | UV photo-crosslinking, anti-SA immunoblot (LOX2 [6])
1 | O=C(O)c1ccccc1O [SA] | bound 3AESA and crosslinked to 4AzSA in an SA-inhibitable manner, indicating that they are SABPs | SA competes with 3AESA and 4AzSA for binding by TRX-m1, TPPII, SHM4, and LOX2 | bound 3AESA and crosslinked to 4AzSA in an SA-inhibitable manner, indicating that they are SABPs | bound 3AESA and crosslinked to 4AzSA in an SA-inhibitable manner, indicating that they are SABPs |  |  |  |  | 
2 | [N-]=[N+]=Nc1ccc(C(=O)O)c(O)c1 [4AzSA] |  |  |  |  | These five proteins also bound and crosslinked to 4AzSA | bound 3AESA and crosslinked to 4AzSA in an SA-inhibitable manner, indicating that they are SABPs | bound 3AESA and crosslinked to 4AzSA in an SA-inhibitable manner, indicating that they are SABPs | bound 3AESA and crosslinked to 4AzSA in an SA-inhibitable manner, indicating that they are SABPs | These five proteins also bound and crosslinked to 4AzSA
